# pIC50: −log10 of the molar value. Like-named read-outs stand apart in the source and are kept apart here.
# Legend:
# SMN2 mRNA = assay: RT-qPCR splicing assay, SMN2 canonical junction (CJ) mRNA; type: cell-based, human; settings: Homo sapiens
# Outline: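 A673 or K562 cells were treated for 24 h at 37 °C with compound in 11-point 3-fold dilution (top 10 uM final, DMSO ≤0.25%). Lysates then went to one-step RT-qPCR measuring canonical-junction mRNA, normalized to GAPDH, GUSB or PPIA.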
# [1] = test system: K562 (human chronic myelogenous leukemia) cells; assay: Cell Titer Glo 2.0 cell viability assay; type: cell-based; settings: Homo sapiens, K562, 72 h, K562 cells, 72 hours, Cell Titer Glo 2.0; read-out: K562 GI50
# Target C = assay: HiBiT protein abundance assay, Target C (Promega Nano-Glo HiBiT Lytic Detection System, knock-in K562 cell line); type: cell-based, human; settings: Homo sapiens, K562, 24 h, HiBiT K562 cell line, 24 hours, top dose 10 μM; read-out: Effect on protein abundance, Target C (IC50 category)
# Outline: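 Knock-in K562 cells carrying HiBiT-tagged Target C, 10,000 per well, treated 24 h at 37 °C with 10-point threefold dilutions (top 10 μM final, ≤0.25% DMSO). Lytic HiBiT luminescence read; response normalised to unmodified K562 and DMSO controls, four-parameter fit interpolated at 50% for IC50.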
# [2] = canonical junction qPCR panel, Table 5, read-out: SMN2 (decrease in CJ mRNA levels, IC50)
# [3] = Table 5 panel, canonical junction qPCR, compound concentration having 50% response in CJ decrease, read-out: SMN2 IC50 (decrease in CJ mRNA levels)
SMILES,pIC50 (SMN2 mRNA; [2]),GI50 [1] [nM],pIC50 (Target C),pIC50 (SMN2 mRNA; [3])
"Cc1cn2cc(-c3ccc4c(c3)CCN(C3CCNCC3)C4=O)cc(C)c2n1 [Compound 217, 6-[2,8-dimethylimidazo[1,2-a]pyridin-6-yl]-2-(piperidin-4-yl)-3,4-dihydroisoquinolin-1-one]",,1000 to 10000,< 5.00,6.00 to 7.00
"Cc1cn2cc(-c3ccc4c(c3)CCN(C3CCNCC3)C4=O)c(C)cc2n1 [Compound 218, 6-[2,7-dimethylimidazo[1,2-a]pyridin-6-yl]-2-(piperidin-4-yl)-3,4-dihydroisoquinolin-1-one]",,1000 to 10000,5.00 to 6.00,5.00 to 6.00
"Cc1cc(-c2ccc3c(c2)CCN(C2CCNCC2)C3=O)cc2cn(C)nc12 [Compound 219, 6-(2,7-dimethylindazol-5-yl)-2-(piperidin-4-yl)-3,4-dihydroisoquinolin-1-one]",,1000 to 10000,< 5.00,> 7.00
"O=C1c2ccc(-c3cn[nH]c3)cc2CCN1C1CCNCC1 [Compound 220, 2-(piperidin-4-yl)-6-(1H-pyrazol-4-yl)-3,4-dihydroisoquinolin-1-one]",,> 10000,< 5.00,< 5.00
"Cc1cn2cc(-c3ccc4c(c3)CCN(C3CCNCC3)C4=O)nc2c(C)n1 [Compound 221, 6-[6,8-dimethylimidazo[1,2-a]pyrazin-2-yl]-2-(piperidin-4-yl)-3,4-dihydroisoquinolin-1-one]",,1000 to 10000,< 5.00,6.00 to 7.00
"Cc1cn2nc(-c3ccc4c(c3)CCN(C3CCNCC3)C4=O)nc2c(C)n1 [Compound 222, 6-[6,8-dimethyl-[1,2,4]triazolo[1,5-a]pyrazin-2-yl]-2-(piperidin-4-yl)-3,4-dihydroisoquinolin-1-one]",,1000 to 10000,5.00 to 6.00,6.00 to 7.00
"Cc1cn2nc(-c3ccc4c(c3)CCN(C3CCNCC3)C4=O)cc2c(C)n1 [Compound 223, 6-[4,6-dimethylpyrazolo[1,5-a]pyrazin-2-yl]-2-(piperidin-4-yl)-3,4-dihydroisoquinolin-1-one]",,1000 to 10000,< 5.00,6.00 to 7.00
Cc1cn2cc(-c3ccc4c(c3)CCN(C3CCNCC3)C4=O)ncc2n1 [Compound 224],,> 10000,< 5.00,6.00 to 7.00
Cn1cc2cc(-c3ccc4c(c3)CCN(C3CCNCC3)C4=O)cc(F)c2n1 [Compound 225],,1000 to 10000,< 5.00,< 5.00
Cc1nc2c(F)cc(-c3ccc4c(c3)CCN(C3CCNCC3)C4=O)cc2s1 [Compound 226],,1000 to 10000,< 5.00,6.00 to 7.00
Cc1cn2cc(-c3ccc4c(=O)n(C5CCN(C)CC5)cnc4c3F)cc(F)c2n1 [Compound 227],,1000 to 10000,< 5.00,6.00 to 7.00
Cc1cn2cc(-n3cnc4cc(N5CCN(C)CC5)ccc4c3=O)cc(F)c2n1 [Compound 229],,> 10000,< 5.00,< 5.00
Cc1cc(-c2ccc3c(=O)n(C4CCNCC4)cnc3c2F)cc2cn(C)nc12 [Compound 234],,1000 to 10000,5.00 to 6.00,> 7.00
Cc1cc(-c2ccc3c(=O)n(C4CCN(C)CC4)cnc3c2F)cc2cn(C)nc12 [Compound 235],,1000 to 10000,< 5.00,6.00 to 7.00
Cc1cn2nc(-n3cnc4cc(N5CCNCC5)ccc4c3=O)cc(C)c2n1 [Compound 241],,1000 to 10000,5.00 to 6.00,5.00 to 6.00

# Further lines, results first:
pIC50 (SMN2 mRNA; [2]),GI50 [1] [nM],pIC50 (Target C),pIC50 (SMN2 mRNA; [3]),SMILES
> 7.00,100 to 1000,6.00 to 7.00,,"Cc1cn2nc(-c3ccc4c(=O)n(C5C[C@@H](C)N[C@H](C)C5)ncc4n3)cc(C)c2n1 (stereo in doubt) [Compound 1537, 2-(2,8-dimethylimidazo[1,2-b]pyridazin-6-yl)-6-[(2R,6R)-2,6-dimethyl-4-piperidyl]pyrido[2,3-d]pyridazin-5-one]"
6.00 to 7.00,100 to 1000,6.00 to 7.00,,"Cc1cn2nc(-c3ccc4c(=O)n([C@H]5CC(C)N[C@@H](C)C5)ncc4n3)cc(C)c2n1 (stereo in doubt) [Compound 1538, 2-(2,8-dimethylimidazo[1,2-b]pyridazin-6-yl)-6-[(2S,6S)-2,6-dimethyl-4-piperidyl]pyrido[2,3-d]pyridazin-5-one]"
,100 to 1000,6.00 to 7.00,> 7.00,Cc1cn2cc(-c3ccc4c(=O)n(C5CCNCC5)cnc4c3)cc(F)c2n1 [Compound 205]
,100 to 1000,6.00 to 7.00,> 7.00,Cn1cc2cc(-c3ccc4c(=O)n(C5CCNCC5)cnc4c3)cc(F)c2n1 [Compound 206]
,1000 to 10000,5.00 to 6.00,6.00 to 7.00,Cc1cn2cc(-c3ccc4c(=O)n(C5CCN(C)CC5)cnc4c3)cc(F)c2n1 [Compound 207]
,1000 to 10000,< 5.00,6.00 to 7.00,CN1CCC(n2cnc3cc(-c4ccc5nn(C)cc5c4)ccc3c2=O)CC1 [Compound 208]
,1000 to 10000,< 5.00,> 7.00,CN1CCC(n2cnc3cc(-c4cc(F)c5nn(C)cc5c4)ccc3c2=O)CC1 [Compound 209]
,100 to 1000,5.00 to 6.00,6.00 to 7.00,Cc1cn2cc(-c3ccc4c(=O)n(C5CCNCC5)cnc4c3F)cc(F)c2n1 [Compound 210]
,1000 to 10000,5.00 to 6.00,> 7.00,Cc1nc2c(F)cc(-c3ccc4c(c3)CCN(C3CCNCC3)C4=O)cc2o1 [Compound 215]
,100 to 1000,5.00 to 6.00,> 7.00,"Cc1cn2cc(-c3ccc4c(c3)CCN(C3CCNCC3)C4=O)cc(Cl)c2n1 [Compound 216, 6-[8-chloro-2-methylimidazo[1,2-a]pyridin-6-yl]-2-(piperidin-4-yl)-3,4-dihydroisoquinolin-1-one]"
,100 to 1000,6.00 to 7.00,6.00 to 7.00,Cc1cn2cc(-n3cnc4cc(N5CCNCC5)ccc4c3=O)cc(F)c2n1 [Compound 228]
,100 to 1000,6.00 to 7.00,> 7.00,Cc1cn2cc(-c3cc(F)c4c(=O)n(C5CCNCC5)cnc4c3)cc(F)c2n1 [Compound 230]
,100 to 1000,6.00 to 7.00,> 7.00,"Cc1cn2cc(-c3cc(F)c4c(=O)n(C5CCN(C)CC5)cnc4c3)cc(F)c2n1 [Compound 231, 5-fluoro-7-{8-fluoro-2-methylimidazo[1,2-a]pyridin-6-yl}-3-(1-methylpiperidin-4-yl)quinazolin-4-one]"
,100 to 1000,6.00 to 7.00,> 7.00,Cc1cc(-c2cc(F)c3c(=O)n(C4CCNCC4)cnc3c2)cc2cn(C)nc12 [Compound 232]
,100 to 1000,6.00 to 7.00,> 7.00,Cc1cc(-c2cc(F)c3c(=O)n(C4CCN(C)CC4)cnc3c2)cc2cn(C)nc12 [Compound 233]
,100 to 1000,5.00 to 6.00,> 7.00,Cc1cn2cc(-c3ccc4c(=O)n(C5CCNC6(CC6)C5)cnc4c3)cc(F)c2n1 (stereo not drawn) [Compound 236]
,100 to 1000,5.00 to 6.00,> 7.00,Cc1cn2cc(-c3ccc4c(=O)n(C5CCNC(C)(C)C5)cnc4c3)cc(F)c2n1 (stereo not drawn) [Compound 237]
,100 to 1000,> 7.00,> 7.00,Cc1cn2nc(-c3cc(F)c4c(=O)n(C5CCN(C)CC5)cnc4c3)cc(C)c2n1 [Compound 242]

# Source: patent US20250332173A1, “COMPOUNDS AND METHODS FOR MODULATING NUCLEIC ACID SPLICING” (REMIX THERAPEUTICS INC., priority 2021, published 2025)
